From patent US12590096B2, “Imidazo[2,1-f][1,2,4]triazin-4-amine as TLR8 agonists” (BeOne Medicines | GmbH, priority 2019, dated 2026)
Read-outs that look alike come from different tables or passages of the source.

Tests used:
[1] = target: T1, human TLR 8 protein in HEK-blue hTLR 8 tool cell line (Homo sapiens, UniProt Q9NR97); assay: TLR8 stimulation determined by HEK-Blue Detection (NF-κB/SEAP reporter); format: cell-based; settings: HEK-Blue hTLR8 cells, 16 h incubation, relative to maximum activation by Resiquimod or motolimod; read-out: EC50 (nmol)
T1 construct: expressed in transfected cells; host or cells: HEK293 (HEK-Blue hTLR8)
T1 sequence (Q9NR97 27-1041): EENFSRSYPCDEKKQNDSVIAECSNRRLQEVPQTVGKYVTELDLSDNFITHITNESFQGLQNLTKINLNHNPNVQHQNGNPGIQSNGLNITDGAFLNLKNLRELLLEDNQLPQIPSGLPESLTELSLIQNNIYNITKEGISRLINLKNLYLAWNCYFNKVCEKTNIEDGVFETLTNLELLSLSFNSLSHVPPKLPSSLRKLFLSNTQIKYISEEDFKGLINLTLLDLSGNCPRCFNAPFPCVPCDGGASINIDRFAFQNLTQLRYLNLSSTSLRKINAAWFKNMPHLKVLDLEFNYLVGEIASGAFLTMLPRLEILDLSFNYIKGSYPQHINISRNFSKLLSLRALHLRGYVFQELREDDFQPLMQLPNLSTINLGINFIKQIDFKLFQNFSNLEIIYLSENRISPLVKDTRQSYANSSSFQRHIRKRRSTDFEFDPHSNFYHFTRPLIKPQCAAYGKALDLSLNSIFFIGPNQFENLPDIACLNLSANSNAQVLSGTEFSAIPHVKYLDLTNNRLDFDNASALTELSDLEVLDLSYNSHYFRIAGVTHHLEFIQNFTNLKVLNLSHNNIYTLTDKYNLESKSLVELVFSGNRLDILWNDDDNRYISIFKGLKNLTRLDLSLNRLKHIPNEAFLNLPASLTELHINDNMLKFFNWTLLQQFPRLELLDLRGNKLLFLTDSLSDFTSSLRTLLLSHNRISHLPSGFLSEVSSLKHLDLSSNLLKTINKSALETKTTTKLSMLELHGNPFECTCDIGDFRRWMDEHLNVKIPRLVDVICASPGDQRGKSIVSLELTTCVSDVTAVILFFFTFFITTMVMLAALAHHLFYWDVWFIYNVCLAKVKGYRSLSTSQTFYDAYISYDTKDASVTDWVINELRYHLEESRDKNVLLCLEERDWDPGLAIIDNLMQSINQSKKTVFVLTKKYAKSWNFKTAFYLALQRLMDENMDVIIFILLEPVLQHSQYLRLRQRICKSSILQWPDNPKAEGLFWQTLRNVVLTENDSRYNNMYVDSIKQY
Description: TLR8 Stimulation Determined by HEK-Blue Detection
This assay was designed to study the stimulation of human TLR 8 protein in HEK-blue hTLR 8 tool cell line by monitoring the activation of NF-κB. HEK-blue hTLR8 cells were obtained by co-transfection of hTLR8 gene and optimized secretory embryonic alkaline phosphatase (SEAP) reporter gene into HEK293 cells. SEAP reporter gene was put under the control of […] minimal promoter fused with five NF-κB and AP-1-binding sites. NF-κB and AP-1 were activated by stimulation with TLR 8 ligand, thus inducing the expression of SEAP. The level of SEAP can be easily determined by HEK-Blue Detection (a cell culture medium that allows real-time detection of SEAP). HEK-Blue Detection comprises all nutrients needed for cell growth and specific SEAP color substrates. The hydrolysis of substrate by SEAP produces purple/blue color which can be measured by spectrophotometer.
When growing to 50-80% confluence, HEK-Blue hTLR7/8 cells were plated into 96-well plates (costar 3599) at a density of 40,000 cells/well. Then, the compound serially diluted at 10 points with a final concentration ranging from 1 nM to 10 μm in 0.1% DMSO/HEK-Blue Detection was added. The plates were then incubated in 5% CO2 at 37° C. for 16 h. Optical density at 620-655 nm was read on BMG PHERAstar FSX instrument. The EC50 of each compound was determined by calculating the maximum activation percentage identified using Resiquimod or motolimod.
The EC50 of the tested compound of the present invention is as follows.

[2] = tested on: PBMC (peripheral blood monocyte); assay: PBMC determination: cytokines in culture supernatant measured by HTRF; format: cell-based; settings: human PBMC, 24 h
Method: Determination of PBMC (Peripheral Blood Monocyte) Cell Preparation, Separation and Culture
Human whole blood was collected from healthy volunteers using BD Vacutainer® Lithium Heparin Tubes. PBMCs were prepared using Ficoll separation medium (GE Healthcare) by SopMate™ (STEMCELL). The cell survival rate was over 85% as monitored by Countstar. PBMCs were cultured in RPMI 1640 (Gibco) 10% (v/v) FBS (Gibco), 1×MEM NEAA (Gibco), 1× GlutaMAX (Gibco), 1 mM sodium pyruvate (Gibco), 50 uM 2-mercaptoethanol (sigma), and 100 U/ml penicillin-streptomycin (Thermo fisher Scientific).
PBMCs were plated into 96-well plates (costar 3894) with a density of 2×10^5 cells/well. Then, TLR7/8 compound was added, and serial dilution was carried out at ten points. The final concentration in 0.1% DMSO/RPMI 1640 ranged from 1 nM to 10 μM. Then, the plates were incubated in 5% CO2 at 37° C. for 24 h.
HTRF (Homogeneous Time-Resolved Fluorescence)
After the specified time point, according to the manufacturers recommendations, the cytokines in the cell culture supernatant were measured by Human IL6 kit (cisbio) and Human TNF alpha kit (cisbio). The EC50 of each compound was determined by calculating the maximum activation percentage identified using Resiquimod or Motolimod.

[3] = Human IL6 kit (HTRF), read-out: IL6 (EC50)
[4] = Human TNF alpha kit (HTRF), read-out: TNF-alpha (EC50)

| EC50 [1] | SMILES | EC50 [2, 3] | EC50 [2, 4] |
| --- | --- | --- | --- |
| 26 nM | CCC[C@H](C)Oc1nc(N)c2ncc(C[C@H]3C[C@@H](N)C3)n2n1 [Compound B30, 7-(((1s,3S)-3-aminocyclobutyl)methyl)-2-(((S)-pent-2-yl)oxy)imidazo[2,1-f][1,2,4]triazin-4-amine] | 85 nM | 153 nM |
| 63 nM | CCC[C@H](C)Oc1nc(N)c2ncc(CC3CCCNCC3)n2n1 (stereo partly drawn) [Compound B25, 7-(azepan-4-ylmethyl)-2-(((S)-pent-2-yl)oxy)imidazo[2,1-f][1,2,4]triazin-4-amine] | 236 nM | 456 nM |
| 19 nM | CCC[C@H](C)Oc1nc(N)c2ncc(CC3CCN(CCNC)CC3)n2n1 [Compound B12, (S)-7-((1-(2-(methylamino)ethyl)piperidin-4-yl)methyl)-2-(pent-2-yloxy)imidazo[2,1-f][1,2,4]triazin-4-amine] | 14 nM | 10 nM |
| 8.2 nM | CCC[C@H](C)Oc1nc(N)c2ncc(CC3CCNCC3)n2n1 [Compound B6, (S)-2-(pent-2-yloxy)-7-(piperidin-4-ylmethyl)imidazo[2,1-f][1,2,4]triazin-4-amine] | 162 nM | 115 nM |
